Data as given in PubChem BioAssay AID1918996 (Molecular Pharmacology Branch, DTP, NCI, 2023).
Values joined by “and” are separate entries in the source; they are usually repeats but may differ in a detail not shown here. Equal values may be shown once.

System: 349418-098-R-PDC complex spheroid growth
Test: Anticancer human tumor 349418-098-R-PDC patient-derived lung adenocarcinoma cell line growth inhibition [AhR]
Conditions: for viability, T/C: stronger effect = lower value
Method in brief: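 Spheroids combined tumor cells with HUVEC endothelial cells and human MSCs as stroma. AhR antagonists were paired with standard or investigational drugs, each dosed in half-log steps down from near clinical Cmax, or from 10 microM where Cmax was unknown.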

[1] = curve of first compound, second compound 0.1 µM
[2] = curve of first compound, second compound 0.316 µM
[3] = curve of first compound, second compound 1 µM
[4] = curve of first compound, second compound 3.16 µM
[5] = curve of first compound, second compound 10 µM
[6] = second compound 0.1 µM, first compound 0.00949 µM
[7] = second compound 0.1 µM, first compound 0.03 µM
[8] = second compound 0.1 µM, first compound 0.0949 µM
[9] = second compound 0.1 µM, first compound 0.3 µM
[10] = second compound 0.316 µM, first compound 0.00949 µM
[11] = second compound 0.316 µM, first compound 0.03 µM
[12] = second compound 0.316 µM, first compound 0.0949 µM
[13] = second compound 0.316 µM, first compound 0.3 µM
[14] = second compound 1 µM, first compound 0.00949 µM
[15] = second compound 1 µM, first compound 0.03 µM
[16] = second compound 1 µM, first compound 0.0949 µM
[17] = second compound 1 µM, first compound 0.3 µM
[18] = second compound 3.16 µM, first compound 0.00949 µM
[19] = second compound 3.16 µM, first compound 0.03 µM
[20] = second compound 3.16 µM, first compound 0.0949 µM
[21] = second compound 3.16 µM, first compound 0.3 µM
[22] = second compound 10 µM, first compound 0.00949 µM
[23] = second compound 10 µM, first compound 0.03 µM
[24] = second compound 10 µM, first compound 0.0949 µM
[25] = second compound 10 µM, first compound 0.3 µM
[26] = second compound 0.1 µM, first compound 0.0316 µM
[27] = second compound 0.1 µM, first compound 0.1 µM
[28] = second compound 0.1 µM, first compound 0.316 µM
[29] = second compound 0.1 µM, first compound 1 µM
[30] = second compound 0.316 µM, first compound 0.0316 µM
[31] = second compound 0.316 µM, first compound 0.1 µM
[32] = second compound 0.316 µM, first compound 0.316 µM
[33] = second compound 0.316 µM, first compound 1 µM
[34] = second compound 1 µM, first compound 0.0316 µM
[35] = second compound 1 µM, first compound 0.1 µM
[36] = second compound 1 µM, first compound 0.316 µM
[37] = second compound 1 µM, first compound 1 µM
[38] = second compound 3.16 µM, first compound 0.0316 µM
[39] = second compound 3.16 µM, first compound 0.1 µM
[40] = second compound 3.16 µM, first compound 0.316 µM
[41] = second compound 3.16 µM, first compound 1 µM
[42] = second compound 10 µM, first compound 0.0316 µM
[43] = second compound 10 µM, first compound 0.1 µM
[44] = second compound 10 µM, first compound 0.316 µM
[45] = second compound 10 µM, first compound 1 µM
[46] = second compound 0.1 µM, first compound 0.000949 µM
[47] = second compound 0.1 µM, first compound 0.003 µM
[48] = second compound 0.316 µM, first compound 0.000949 µM
[49] = second compound 0.316 µM, first compound 0.003 µM
[50] = second compound 1 µM, first compound 0.000949 µM
[51] = second compound 1 µM, first compound 0.003 µM
[52] = second compound 3.16 µM, first compound 0.000949 µM
[53] = second compound 3.16 µM, first compound 0.003 µM
[54] = second compound 10 µM, first compound 0.000949 µM
[55] = second compound 10 µM, first compound 0.003 µM
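Further: spheroids exposed to agents for seven days before luminescence viability read.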
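Wherever viability, T/C is given: spheroids also contain HUVEC endothelial cells and human MSC stroma.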

## CCN(c1cc(-c2ccc(CN3CCOCC3)cc2)cc(C(=O)NCc2c(C)cc(C)[nH]c2=O)c1C)C1CCOCC1 + Cc1cncc(-c2nc(NCCc3c[nH]c4ccccc34)c3ncn(C(C)C)c3n2)c1
[1]
  IC50: > 3000 nM
[2]
  IC50: > 3000 nM
[3]
  IC50: > 3000 nM
[4]
  IC50: < 9.49 nM
[5]
  IC50: < 9.49 nM
[6]
  viability, T/C: 98.9%
[7]
  viability, T/C: 85%
[8]
  viability, T/C: 98%
[9]
  viability, T/C: 96.5%
Second compound 0.1 µM, first compound 0.949 µM
  viability, T/C: 97.7%
Second compound 0.1 µM, first compound 3 µM
  viability, T/C: 80.5%
[10]
  viability, T/C: 105%
[11]
  viability, T/C: 94.2%
[12]
  viability, T/C: 103%
[13]
  viability, T/C: 103%
Second compound 0.316 µM, first compound 0.949 µM
  viability, T/C: 105%
Second compound 0.316 µM, first compound 3 µM
  viability, T/C: 76.5%
[14]
  viability, T/C: 82.8%
[15]
  viability, T/C: 94%
[16]
  viability, T/C: 81%
[17]
  viability, T/C: 74.5%
Second compound 1 µM, first compound 0.949 µM
  viability, T/C: 77.2%
Second compound 1 µM, first compound 3 µM
  viability, T/C: 71.9%
[18]
  viability, T/C: 19.9%
[19]
  viability, T/C: 17.9%
[20]
  viability, T/C: 19.6%
[21]
  viability, T/C: 15.1%
Second compound 3.16 µM, first compound 0.949 µM
  viability, T/C: 14.2%
Second compound 3.16 µM, first compound 3 µM
  viability, T/C: 12.3%
[22]
  viability, T/C: 3.07%
[23]
  viability, T/C: 3.18%
[24]
  viability, T/C: 2.66%
[25]
  viability, T/C: 2.82%
Second compound 10 µM, first compound 0.949 µM
  viability, T/C: 2.27%
Second compound 10 µM, first compound 3 µM
  viability, T/C: 1.62%

## CC1COCCN1c1cc(-c2ccnn2C)c2ccnc(-c3ccn[nH]3)c2n1 (configuration not stated) + Cc1cncc(-c2nc(NCCc3c[nH]c4ccccc34)c3ncn(C(C)C)c3n2)c1
[1]
  IC50: 153 nM
[2]
  IC50: 150 nM
[3]
  IC50: 101 nM
[4]
  IC50: < 3.16 nM
[5]
  IC50: < 3.16 nM
Second compound 0.1 µM, first compound 0.00316 µM
  viability, T/C: 105%
Second compound 0.1 µM, first compound 0.01 µM
  viability, T/C: 105%
[26]
  viability, T/C: 99.7%
[27]
  viability, T/C: 71.6%
[28]
  viability, T/C: 13.1%
[29]
  viability, T/C: 7.48%
Second compound 0.316 µM, first compound 0.00316 µM
  viability, T/C: 90.9%
Second compound 0.316 µM, first compound 0.01 µM
  viability, T/C: 92.4%
[30]
  viability, T/C: 91.4%
[31]
  viability, T/C: 68.5%
[32]
  viability, T/C: 15.7%
[33]
  viability, T/C: 7.2%
Second compound 1 µM, first compound 0.00316 µM
  viability, T/C: 74.1%
Second compound 1 µM, first compound 0.01 µM
  viability, T/C: 81.4%
[34]
  viability, T/C: 81.5%
[35]
  viability, T/C: 50.1%
[36]
  viability, T/C: 13.2%
[37]
  viability, T/C: 8.54%
Second compound 3.16 µM, first compound 0.00316 µM
  viability, T/C: 14.2%
Second compound 3.16 µM, first compound 0.01 µM
  viability, T/C: 15.1%
[38]
  viability, T/C: 12.4%
[39]
  viability, T/C: 7.18%
[40]
  viability, T/C: 6.8%
[41]
  viability, T/C: 5.72%
Second compound 10 µM, first compound 0.00316 µM
  viability, T/C: 0.74%
Second compound 10 µM, first compound 0.01 µM
  viability, T/C: 0.66%
[42]
  viability, T/C: 0.7%
[43]
  viability, T/C: 0.73%
[44]
  viability, T/C: 0.69%
[45]
  viability, T/C: 1.49%

## CC1(C)CCC(CN2CCN(c3ccc(C(=O)NS(=O)(=O)c4ccc(NCC5CCOCC5)c([N+](=O)[O-])c4)c(Oc4cnc5[nH]ccc5c4)c3)CC2)=C(c2ccc(Cl)cc2)C1 + Cc1ccccc1N=Nc1ccc(NC(=O)c2ccnn2C)c(C)c1
[1]
  IC50: 5800 nM
[2]
  IC50: 6030 nM
[3]
  IC50: 6540 nM
[4]
  IC50: 3540 nM
[5]
  IC50: 3260 nM
[26]
  viability, T/C: 116%
[27]
  viability, T/C: 111%
[28]
  viability, T/C: 116%
[29]
  viability, T/C: 92.9%
Second compound 0.1 µM, first compound 3.16 µM
  viability, T/C: 71.6%
Second compound 0.1 µM, first compound 10 µM
  viability, T/C: 31.6%
[30]
  viability, T/C: 81.5%
[31]
  viability, T/C: 81.1%
[32]
  viability, T/C: 64.4%
[33]
  viability, T/C: 70%
Second compound 0.316 µM, first compound 3.16 µM
  viability, T/C: 86.1%
Second compound 0.316 µM, first compound 10 µM
  viability, T/C: 29.1%
[34]
  viability, T/C: 101%
[35]
  viability, T/C: 82.1%
[36]
  viability, T/C: 84.7%
[37]
  viability, T/C: 79.7%
Second compound 1 µM, first compound 3.16 µM
  viability, T/C: 85.7%
Second compound 1 µM, first compound 10 µM
  viability, T/C: 29.2%
[38]
  viability, T/C: 76.9%
[39]
  viability, T/C: 65.9%
[40]
  viability, T/C: 73.3%
[41]
  viability, T/C: 66.1%
Second compound 3.16 µM, first compound 3.16 µM
  viability, T/C: 52%
Second compound 3.16 µM, first compound 10 µM
  viability, T/C: 26%
[42]
  viability, T/C: 54.6%
[43]
  viability, T/C: 59.8%
[44]
  viability, T/C: 65.1%
[45]
  viability, T/C: 51.8%
Second compound 10 µM, first compound 3.16 µM
  viability, T/C: 52%
Second compound 10 µM, first compound 10 µM
  viability, T/C: 25.9%

## CCc1c2c(nc3ccc(O)cc13)-c1cc3c(c(=O)n1C2)COC(=O)[C@]3(O)CC
Compound 0.000949 µM
  viability, T/C: 55.3% and 67.2% and 40.5%
Compound 0.003 µM
  viability, T/C: 43.4% and 54.1% and 42.9%
Compound 0.00949 µM
  viability, T/C: 20.6% and 16% and 22.3%
Compound 0.03 µM
  viability, T/C: 7.29% and 12% and 8.26%
Compound 0.0949 µM
  viability, T/C: 3.4% and 8.26% and 6.22%
Compound 0.3 µM
  viability, T/C: 1.91% and 6.96% and 4.74%
Curve of compound
  IC50: 1.58 nM and 3.39 nM and < 0.949 nM

## Nc1ncn(C2CC(O)C(CO)S2)c(=O)n1 (configuration not stated) + Cc1ccccc1N=Nc1ccc(NC(=O)c2ccnn2C)c(C)c1
[1]
  IC50: 90.5 nM
[2]
  IC50: 80.4 nM
[3]
  IC50: 63.9 nM
[4]
  IC50: 109 nM
[5]
  IC50: 56.9 nM
[46]
  viability, T/C: 116%
[47]
  viability, T/C: 87.8%
[6]
  viability, T/C: 83.4%
[7]
  viability, T/C: 59.1%
[8]
  viability, T/C: 60.5%
[9]
  viability, T/C: 28.6%
[48]
  viability, T/C: 111%
[49]
  viability, T/C: 63.5%
[10]
  viability, T/C: 105%
[11]
  viability, T/C: 70.2%
[12]
  viability, T/C: 47.7%
[13]
  viability, T/C: 26.6%
[50]
  viability, T/C: 91.5%
[51]
  viability, T/C: 92.7%
[14]
  viability, T/C: 98.7%
[15]
  viability, T/C: 67.5%
[16]
  viability, T/C: 41.4%
[17]
  viability, T/C: 20.8%
[52]
  viability, T/C: 52.2%
[53]
  viability, T/C: 72.7%
[18]
  viability, T/C: 72.2%
[19]
  viability, T/C: 66.2%
[20]
  viability, T/C: 54.5%
[21]
  viability, T/C: 18.1%
[54]
  viability, T/C: 73.6%
[55]
  viability, T/C: 67.5%
[22]
  viability, T/C: 65.7%
[23]
  viability, T/C: 62.1%
[24]
  viability, T/C: 40.8%
[25]
  viability, T/C: 28.9%

## CCc1c2c(nc3ccc(O)cc13)-c1cc3c(c(=O)n1C2)COC(=O)[C@]3(O)CC + Cc1cncc(-c2nc(NCCc3c[nH]c4ccccc34)c3ncn(C(C)C)c3n2)c1
[1]
  IC50: < 0.949 nM
[2]
  IC50: < 0.949 nM
[3]
  IC50: < 0.949 nM
[4]
  IC50: < 0.949 nM
[5]
  IC50: < 0.949 nM
[46]
  viability, T/C: 49.5%
[47]
  viability, T/C: 24.2%
[6]
  viability, T/C: 6.34%
[7]
  viability, T/C: 3.54%
[8]
  viability, T/C: 2.3%
[9]
  viability, T/C: 1.59%
[48]
  viability, T/C: 47.7%
[49]
  viability, T/C: 16.8%
[10]
  viability, T/C: 5.66%
[11]
  viability, T/C: 3.5%
[12]
  viability, T/C: 2.11%
[13]
  viability, T/C: 1.51%
[50]
  viability, T/C: 41.9%
[51]
  viability, T/C: 14.4%
[14]
  viability, T/C: 5.54%
[15]
  viability, T/C: 3.53%
[16]
  viability, T/C: 2.48%
[17]
  viability, T/C: 1.41%
[52]
  viability, T/C: 12.8%
[53]
  viability, T/C: 6.98%
[18]
  viability, T/C: 3.19%
[19]
  viability, T/C: 2.37%
[20]
  viability, T/C: 1.61%
[21]
  viability, T/C: 1.27%
[54]
  viability, T/C: 1.19%
[55]
  viability, T/C: 1.44%
[22]
  viability, T/C: 0.76%
[23]
  viability, T/C: 0.65%
[24]
  viability, T/C: 0.41%
[25]
  viability, T/C: 0.29%
